Source: patent US20210155990A1, “NF-KB REGULATED GENE EXPRESSION ASSAY FOR ASSESSING EFFICACY OF MALT1 INHIBITORS” (Janssen Pharmaceutica NV, priority 2019, published 2021)

Tests used:
[1] = system: NF-κB proteins (p50 and RelB) in CLL cells; conditions: CLL cells treated in vitro; ELISA; cited from earlier work
[2] = system: T cells (CD4+ and CD8+) in normal blood; assay: CD69 expression on T cells, normal peripheral whole blood, anti-CD3/anti-CD28 stimulation (IFC); assay type: cell-based, human; conditions: 200 μM overnight, anti-CD3/anti-CD28 6 hours
Experimental: (§1) Both tubes were mixed well. The treated blood mixture was transferred at 3 mL per well to a 6-well polystyrene culture plate (Falcon, cat. #353046) and incubated overnight in a humidified incubator at 37° C. with 5% CO2.
(§2) The solution was mixed by pipetting with a 1 mL pipette. The plates were incubated in a humidified incubator at 37° C. with 5% CO2 for an additional 6 hours.
(§3) The next day, blood was treated with anti-CD3 and anti-CD28 stimulatory antibodies for 6 hours as described in Example 1 or left untreated. After treatment with the stimulatory antibodies, the red blood cells were lysed using multi-species lysis buffer, and the white blood cells were stained with anti-CD4 and anti-CD8 antibodies to label T cells and an anti-CD69 antibody to measure early T cell activation. Frequency of CD69-positive T cells (CD4+ and CD8+) was measured by IFC.

[3] = system: T cells (CD4+ and CD8+) in NHL blood; assay: CD69 expression on T cells, NHL peripheral whole blood, anti-CD3/anti-CD28 stimulation (IFC); assay type: cell-based, human; conditions: 200 μM overnight, anti-CD3/anti-CD28 6 hours
Experimental: as §1, §2, §3

[4] = system: NF-κB (p50) nuclear translocation in T cells; assay: NF-kB nuclear translocation in T cells from NHL whole blood by imaging flow cytometry (Example 4); assay type: cell-based, human
Experimental: as §2
Frozen or fresh cells treated with the experimental conditions were obtained. For example, T cells in blood samples could be activated and the PBMCs containing the activated T cells could be isolated using the method described in Example 1. Alternatively, PBMCs in blood samples could be activated and subject to the imaging flow cytometry analysis directly without isolation. If the samples were whole blood, a minimum of 1 mL of blood was used for each test in this experiment. However, less than 1 mL whole blood can also be used in the assay. […]
The samples were imaged on an AMNIS® […]® X Mark II imaging flow cytometer (MilliporeSigma, Burlington, Mass.) immediately, using 60× magnification, and the data was analyzed in IDEAS software using an internalization module, e.g., to evaluate frequency of CD4+ and CD8+ T cells or CLL cells with nuclear enrichment of p50.
The next day, the mixture samples were treated with anti-CD3 and anti-CD28 stimulatory antibodies following a procedure as that described in Example 1. […] Samples were analyzed on ImageStreamX to evaluate NF-κB nuclear localization in the CD4 and the CD8 positive T cells.

[5] = system: NF-κB (p50) nuclear translocation in CD19-positive B (CLL) cells; assay: NF-κB nuclear translocation in B cells from CLL PBMCs, anti-IgM 30 minutes (Example 5); assay type: cell-based, human; conditions: 6 hours compound
Experimental: Alternatively, B cells can also be activated by beads coated with anti-IgM antibody. After the stimulation, PBMCs were fixed using CytoFix buffer and permeabilized using 0.1% Triton X-100 solution. Cells were then stained with anti-CD19 to label B (CLL) cells, Hoechst 33342 to label nuclei, and anti-p105/p50 to label NF-κB subunit. Samples were analyzed on ImageStreamX to evaluate NF-κB nuclear localization in the CD19-positive cells. […] Statistical significance was determined using Student's t-test in Microsoft Excel.

[6] = system: NF-κB (p50) nuclear translocation in B (CLL) cells; assay: NF-κB nuclear translocation in B cells from CLL PBMCs, anti-IgM 6 hours (Example 6); assay type: cell-based, human; conditions: CLL PBMC, overnight compound
Experimental: Cells were then treated with anti-IgM or left untreated for 6 hours. After stimulation, PBMC were fixed using CytoFix buffer and permeabilized using 0.1% Triton X-100 solution. Cells were then stained with anti-CD19 to label B (CLL) cells, anti-CD4 and anti-CD8 to label T cells, Hoechst 33342 to label nuclei, and anti-p105/p50 to label NF-kB subunit. Samples were analyzed on ImageStreamX to evaluate NF-kB nuclear localization in B cells or T cells. […] Statistical significance was determined using Student's t-test in Microsoft Excel.

[7] = system: IL2, an NF-κB regulated gene; assay: IL2 expression in purified T-cells and PBMCs from NHL blood (Example 8); assay type: cell-based, human; conditions: T-cells and PBMC from NHL blood; 24 hours; anti-CD3/CD28 six hours
Experimental: The effect of a MALT inhibitor was analyzed utilizing gene expression signatures from purified T-cells and PBMCs from Non-Hodgkin's lymphoma patients. Peripheral blood was collected from five NHL patients, and the peripheral blood was allowed to stand overnight. Then, the peripheral blood was treated for 24 hours with a MALT inhibitor or DMSO control. The blood was then stimulated with monoclonal antibodies against CD3 and CD28 for six hours. Prior to stimulation and following stimulation, PBMC were purified from the treated blood using a ficoll density gradient and T-cells were purified using CD3 Beads (Miltenyi) using the manufacturers protocol. Purified cells were lysed in RLTplus (Qiagen) and RNA was extracted from the purified cells using an AllPrepkit (Qiagen). Gene expression was measured using 100 ng of RNA in the Pan-Cancer Immune Profiling kit (NanoString) according to the manufacturer's instructions.

[8] = system: NF-κB2, TNFSF10, APOE, PYCARD expression; assay: Gene expression in T-cells and PBMCs purified from NHL blood without stimulation (Example 9); assay type: cell-based, human; conditions: no stimulation, 24 hours
Experimental: Peripheral blood was collected from five NHL patients, and the peripheral blood was allowed to stand overnight. Then, the peripheral blood was treated for 24 hours with a MALT inhibitor or DMSO control. PBMCs were purified from the unstimulated blood using a ficoll density gradient and T-cells were purified using CD3 Beads (Miltenyi) using the manufacturers protocol. Purified cells were lysed in RLTplus (Qiagen) and RNA was extracted from the purified cells using an AllPrep kit (Qiagen). Gene expression was measured using 100 ng of RNA in the Pan-Cancer Immune Profiling kit (NanoString) according to the manufacturer's instructions. Gene expression signatures were compared between the MALT inhibitor treated and DMSO treated samples.

DLBCL cell lines = assay: Growth of DLBCL cell lines in vitro (nonclinical studies); assay type: cell-based
[9] = system: proteases, caspases, protein kinases, and G-protein-coupled receptors; assay: Binding inhibition panel at single dose; conditions: single dose of either 1 μM or 10 μM
[10] = Oral bioavailability (description)
[11] = system: MALT1 regulated gene expression in CLL whole blood; conditions: 200 μM 24 h, anti-CD3/CD28 four hours
Experimental: (§4) Peripheral blood was collected from three NHL and two CLL patients. […] Prior to stimulation and following stimulation, the treated blood was transferred into a PAXgene tube (Qiagen; Hilden, Germany) and RNA was extracted using the PAXgene RNA kit. Gene expression was measured using 100 ng of RNA extracted from the whole blood in the Pan-Cancer Immune Profiling kit (NanoString; Seattle, Wash.) according to the manufacturer's instructions.

[12] = system: MALT1 regulated gene expression in NHL whole blood; conditions: 200 μM 24 h, anti-CD3/CD28 four hours
Experimental: as §4

[13] = system: MALT1 regulated gene expression in NHL whole blood; conditions: 100 μM 2 h, PMA-stimulated samples
Experimental: Then, aliquots were stimulated with CD3 and CD28 antibodies (1 ug/ml each), PMA (20 ng/ml) and Ionomycin (1 μg/mL), or unstimulated (PBS) for four hours. Following stimulation, the treated blood was transferred into a PAXgene tube (Qiagen; Hilden, Germany) and RNA was extracted using the PAXgene RNA kit.
Gene expression was measured using 100 ng of RNA extracted from the whole blood in the Pan-Cancer Immune Profiling kit (NanoString; Seattle, Wash.) according to the manufacturer's instructions. Gene expression was normalized across samples using NanoString nSolver software. […] Briefly, log2-scaled, normalized NanoString counts were fit to a linear model (which incorporated the patient of origin) and moderated t-statistics, along with the associated Benjamini-Hochberg (BH) corrected p-values, were computed by empirical Bayes moderation of the standard errors towards a common value.

IC50 ([4]; Homo sapiens, T-cell, overnight, CD3/CD28 stimulation 6 h, read-out: IC50, NFκB nuclear translocation in T cells) | oral bioavailability [10] | Compound | nuclear translocation of NF-κB proteins (p50 and RelB) [1] | surface expression of CD69 on CD4+ and CD8+ T cells [2] | surface expression of CD69 on T cells [3] | NFκB nuclear translocation in T cells (canonical NF-κB signaling) ([4]; CD3/CD28 stimulation, dosage dependent) | NF-κB nuclear translocation in activated B cells [5] | NF-κB nuclear translocation in B cells activated by anti-IgM [6] | stimulation induced upregulation of IL2 [7] | APOE expression ([8]; purified PBMCs) | PYCARD expression ([8]; purified PBMCs) | NF-κB2 expression ([8]; purified T-cells) | TNFSF10 expression ([8]; purified T-cells) | growth of CD79b-mutant DLBCL cell lines (DLBCL cell lines) | growth of ibrutinib-resistant DLBCL cell lines harboring BTK C481S or CARD11 mutations (DLBCL cell lines) | binding inhibition of proteases, caspases, protein kinases, and G-protein-coupled receptors [9] | stimulation induced upregulation of CXCL10 [11] | stimulation induced upregulation of CXCL10 [12] | gene expression of ICOS, POU2F2, CCR4, and CTLA4 [13] | genes upregulated [13]
– | – | COCCOc1nc(-c2ccc(Cl)c(Cl)c2)n(-c2ccc(NC(=O)CCl)cc2)n1 [MI-2] | suppress | – | – | – | – | – | – | – | – | – | – | – | – | – | – | – | – | –
~9.5 µM | orally bioavailable | O=C(Nc1ccnc(C(F)(F)F)c1)c1cnn(-c2cccc3c(=O)[nH]ccc23)c1C(F)(F)F [Compound A, 1-(1-oxo-1,2 dihydroisoquinolin-5-yl)-5 (trifluoromethyl)-N-[2 (trifluoromethyl)pyridin-4 yl]-1H-pyrazole-4 carboxamide] | – | not affected | significantly inhibited | completely blocked | inhibited | inhibited | repressed | repressed | repressed | repressed | repressed | inhibit growth | inhibit growth | did not show significant binding inhibition | repressed | repressed | downregulated | no genes were significantly upregulated
